Reference: patent US20240051971A1, “INTRACELLULAR ATP ENHANCER” (School Juridical Person Higashi-Nippon-Gakuen, priority 2020, published 2024)
Where two headings read alike, the source gives them in different places. Blank lines part the entries; values can stand above or below the molecule they belong to.

What was measured:
[1] = Test Example 2b, absorbability of solid dispersion containing Compound 14 in rats; assay type: in vivo, rats (Crl:CD (SD)); conditions: rat, single oral, 30 mg/kg as Compound 14, fasted
Description: A single dose of 10 mg/kg or 30 mg/kg, as Compound 14, of the solid dispersions of Reference Example 2b and Comparative Reference Example 10b and the sample of Comparative Reference Example 11b suspended in a 1% carboxymethylcellulose aqueous solution was orally administered to fasted male rats (8 weeks old, Crl:CD (SD), Japan Charles River Laboratories). A crystalline drug substance of Compound 14 was used as a control (Comparative Reference Example 12b). A collection time was 0.5, 1, 2, 4, 8, and 24 hours after administration, and about 300 μL of blood was collected at each time point from vena caudalis (n=3). The obtained blood was centrifuged at 1500×g, 4° C. for 15 minutes to obtain a plasma. The concentration of Compound 14 in the plasma was measured by HPLC (Shiseido Company, Limited and Hitachi High-Technologies Corporation). A time to reach the highest concentration in the plasma (Tmax), the highest concentration in the plasma (Cmax) and an area under the plasma concentration-time curve (AUC) were calculated from the change in the concentration in the obtained plasma. Here, values in the table are the mean value±standard deviation of three examples.

[2] = tested on: serum uric acid level; test: Reference Example 14, action of lowering serum uric acid level in healthy adult males; assay type: in vivo; conditions: for maximum rate of decrease in a blood uric acid level: solid dispersion capsules of Formulation Example 1
Description: For comparative reference, the results are shown in FIG. 9 together with the result of a case described in Non Patent Literature 3 in which febuxostat (40 mg) was used.

[3] = tested on: plasma uric acid level; test: Reference Example 15, plasma uric acid in oxonic acid-induced hyperuricemic rats, 28-day repeated administration; assay type: in vivo, oxonic acid-induced hyperuricemic rats (Crl:CD (SD)); conditions: oral once a day for 28 days, non-fasting; Compound 14 0.3 mg/kg; Days 1, 7, 14, 21, 28
Description: Compound 14 suspended in a 1% aqueous methylcellulose solution was orally administered to oxonic acid-induced hyperuricemic rats at a dose of 0.3 mg/kg once a day for 28 days under non-fasting conditions. As a control, a 1% aqueous methylcellulose solution was used, and as a positive control, febuxostat was used.
As rats, male Crl:CD (SD) rats (produced by Charles River Laboratories Japan, Inc.) were used. The rats were purchased at the age of 6 weeks, and the administration was started at the age of 7 weeks.
Potassium oxonate was prepared by adding and suspending 10 g of potassium oxonate (Sigma-Aldrich Corp., Lot No. 03810 HD) to 200 mL of 1% methyl cellulose (1% MC) with a mixer. […]
The collection time points were set to before administration (1 hour before) and 2 and 6 hours after administration on Days 1, 7, 14, 21, and 28, and blood was collected in an amount of about 300 μL per time point from the tail vein (n=7). […] The concentration of uric acid in the plasma was measured by HPLC (Shiseido Co., Ltd., current OSAKA SODA).
To acquire the predose value and data for grouping, a 1% aqueous methylcellulose solution was orally administered to all rats 5 days before the start of administration, and the uric acid concentration in the plasma was measured according to the above-described method such as subcutaneous administration of potassium oxonate. […]

[4] = tested on: MOVAS-1 cells having XOR activity; test: Example 1, ATP enhancing action in hypoxic condition; assay type: cell-based; conditions: 1% oxygen, 4 hours
Description: MOVAS-1 cells having XOR activity were used for Examples. All examinations were performed at n=3 for each number of samples. The medium of MOVAS-1 cells in a confluent state (with D-MEM/low glucose/10% FBS/100 μM Oxionate) was divided into a medium for a hypoxanthine addition group and a medium for a hypoxanthine non-addition group, 50 μM hypoxanthine, and 6 μM Compound 14, 10 μM febuxostat, or 100 μM allopurinol were added to the medium of the hypoxanthine addition group, and 6 μM Compound 14, 10 μM febuxostat, or 100 μM allopurinol was added to the medium of the hypoxanthine non-addition group. For the control of each group, only 50 μM hypoxanthine was added to the hypoxanthine addition group, and nothing was added to the hypoxanthine non-addition group. Thereafter, the media were allowed to stand for 4 hours under mixed gas conditions of 1% oxygen, 5% carbon dioxide, and 94% nitrogen. After deproteinization by PCA, ATP, ADP and AMP concentrations were measured using HPLC.

[5] = tested on: MOVAS-1 cells having XOR activity; test: Example 2, ATP enhancing action in presence of uncoupler (CCCP); assay type: cell-based; conditions: 6 μM Compound 14, CCCP 10 μM, 30 minutes; versus control of the CCCP addition group
Description: MOVAS-1 cells having XOR activity were used for Examples. All examinations were performed at n=3 for each number of samples. The medium of MOVAS-1 cells in a confluent state (with D-MEM/low glucose/10% FBS/100 uM Oxionate) was divided into a medium for a CCCP addition group and a medium for a CCCP non-addition group, and 6 μM Compound 14 was added to the media. Nothing was added to the control of each group. Thereafter, to the CCCP addition group, CCCP was added so as to have a final concentration of 10 μM. After standing for 30 minutes, deproteinization was performed by PCA, and then ATP, ADP, and AMP concentrations were measured using HPLC.

[6] = tested on: RCS rats; test: Example 3, suppressive action on retinal degeneration; assay type: in vivo; conditions: oral once a day for 18 days, 1 mg/100 g body weight as Compound 14 (solid dispersion of Formulation Example 1); versus control, p<0.05, n=4
Description: (§1) Three week old RCS rats (CLEA Japan, Inc., male) were purchased and randomly divided into a control group and a Compound 14 administration group. From 3.5 weeks of age, control and Compound 14 were orally administered daily once a day for 18 days. To the control group, 1% methylcellulose (Metrose (SM-15) manufactured by Shin-Etsu Chemical Co., Ltd.) was administered, and to the Compound 14 administration group, a preparation in which a solid dispersion of Compound 14 described in “Formulation Example 1” described later was suspended in 1% methylcellulose was administered at a dose of 5 mg/100 g body weight (1 mg/100 g body weight as Compound 14) per administration. Because xanthine stones are likely to occur in rodents due to XOR inhibition, Uralyt-U combination powder (manufactured by Nippon Chemiphar Co., Ltd.) was administered to both groups in drinking water at a concentration of 1% (w/v) in order to prevent/reduce xanthine stones. On Day 19 after completion of administration for 18 days, eyeballs of both eyes were collected from both groups, and a tissue image was observed on one eyeball.

[7] = tested on: eyeball; test: Example 4, measurement of concentration of various molecules in eyeball; assay type: in vivo, RCS rats; set-up: unit not given here; conditions: Day 19 after 18 days oral administration
Description: as §1
Concentrations of various molecules in one eyeball collected in Example 3 were measured. The eyeball stored at −80° C. was freeze-pulverized, a 5% perchloric acid solution in an amount of 2 times (w/w) was added, and the mixture was vortexed. The supernatant obtained by centrifugation at 15000 rpm and 4° C. for 5 minutes was neutralized with a 3 M potassium carbonate solution. The mixture was centrifuged again at 15000 rpm and 4° C. for 5 minutes, and the supernatant was equilibrated with 0.5 M sodium phosphate buffer to prepare an eyeball extraction solution. ATP, ADP, AMP, IMP, inosine, hypoxanthine, xanthine, uric acid, GTP, GDP, and GMP in the solution were measured by HPLC (HPLC: Shimadzu Corporation LC-20AD, Diode array detector: Shimadzu Corporation SPD-M20A), and the energy charge was calculated (Calculation formula: ([ATP]+½ [ADP])/([ATP]+[ADP]+[AMP])).

[8] = tested on: serum; test: Example 5, concentration of hypoxanthine and inosine in serum; assay type: in vivo, RCS rats; conditions: Day 11 after 10 days daily oral administration
Description: In the same manner as in Example 3, to RCS rats, control or Compound 14 was orally administered daily for 10 days, and Uralyt-U combination powder (manufactured by Nippon Chemiphar Co., Ltd.) was administered in drinking water. On Day 11 after completion of administration for 10 days, blood was collected from both groups to prepare serum.

[9] = Distribution of administered Compound 14 in the eyeball; assay type: in vivo; conditions: Compound 14 administered to the rat
[10] = tested on: serum uric acid level; conditions: febuxostat 40 mg, case described in Non Patent Literature 3; first day of the administration (about 15 hours after the administration); cited from earlier work

AUClast [1]: 15369 ± 7776 ng·h/mL
Cmax [1]: 1724 ± 65 ng/mL
Compound: N#Cc1cc(-c2nc3c(O)ncnc3s2)ccc1Oc1ccccc1 [Comparative Reference Example 11b, 2-(3-Cyano-4-phenoxyphenyl)-7-hydroxythiazolo[5,4-d]pyrimidine]

AUClast [1]: 1157 ± 261 ng·h/mL
Cmax [1]: 239 ± 99 ng/mL
Tmax [1]: 4.7 ± 3.1 h
Compound: N#Cc1cc(-c2nc3c(O)ncnc3s2)ccc1Oc1ccccc1 [Comparative Reference Example 12b, 2-(3-Cyano-4-phenoxyphenyl)-7-hydroxythiazolo[5,4-d]pyrimidine]

distribution in the eyeball [9]: hardly distributed in the eyeball
Compound: N#Cc1cc(-c2nc3c(O)ncnc3s2)ccc1Oc1ccccc1 [Compound 14, 2-(3-Cyano-4-phenoxyphenyl)-7-hydroxythiazolo[5,4-d]pyrimidine]
serum uric acid level over the administration period ([2]; 40 mg once daily for 7 days, capsules containing micronized Compound 14): gradually decreased over time throughout the administration period
maximum rate of decrease in a blood uric acid level ([2]; 80 mg once daily for 7 days, seventh day (about 8 hours after the administration)): about 30%
maximum rate of decrease in a blood uric acid level ([2]; 80 mg once daily, first day of the administration (12 hours after the administration)): about 17%
rate of change of the plasma uric acid level AUC (−1) to 6 with respect to the control group [3]: increased with repeated administration
ATP enhancing action (ATP, ADP and AMP concentrations) ([4]; 6 μM Compound 14 versus 10 μM febuxostat or 100 μM allopurinol, with or without 50 μM hypoxanthine): exhibited effects at doses lower than febuxostat and allopurinol
ATP enhancing action in hypoxic condition, hypoxanthine in combination ([4]; 50 μM hypoxanthine, 6 μM Compound 14 versus 10 μM febuxostat): significant difference between Compound 14 and febuxostat
total adenylate concentration [5]: higher than the total adenylate concentration of the control group of the CCCP addition group
thinning of the outer nuclear layer and the cone-rod layer in the retinal tissue [6]: significantly suppressed
GTP ([7]; NS p = 0.069 vs control): 53.157 ± 8.352
Hypoxanthine ([7]; NS p = 0.081 vs control): 8.450 ± 3.244
Xanthine ([7]; NS p = 0.095 vs control): 1.739 ± 0.590
GMP ([7]; p = 0. 000 vs control): 2.458 ± 1.898
IMP ([7]; p = 0.002 vs control): 3.640 ± 1.122
ADP ([7]; p = 0.004 vs control): 55.134 ± 7.253
AMP ([7]; p = 0.010 vs control): 27.828 ± 8.547
Uric acid ([7]; p = 0.027 vs control): 1.344 ± 0.444
ATP ([7]; p = 0.033 vs control): 175.809 ± 25.506
GDP ([7]; p = 0.036 vs control): 8.115 ± 1.245
Inosine ([7]; p = 0.047 vs control): 13.063 ± 4.690
increase of the concentration of hypoxanthine in the serum versus control [8]: about 7 times
increase of the concentration of inosine in the serum versus control [8]: about 38 times
Hypoxanthine, Serum (n = 4) ([8]; p = 0.023 vs control): 92.020 ± 47.670
Inosine, Serum (n = 4) ([8]; p = 0.026 vs control): 9.950 ± 6.280

Compound: Cc1nc(-c2ccc(OCC(C)C)c(C#N)c2)sc1C(=O)O [febuxostat, reference compound]
rate of change of the plasma uric acid level AUC (−1) to 6 with respect to the control group [3]: no clear increase was observed
maximum rate of decrease in a blood uric acid level [10]: about 35%
